Drawing on US20240208940A1, “SMALL-MOLECULE INHIBITORS FOR BETA-CATENIN/BCELL LYMPHOMA 9 PROTEIN-PROTEIN INTERACTION” (H. LEE MOFFITT CANCER CENTER AND RESEARCH INSTITUTE, INC., priority 2021, published 2024), this text covers Ki and IC50 for 17 compounds.

The assay concerns the target β-catenin/BCL9 PPI (Homo sapiens (Human), UniProt P35222). The experiment in a line: AlphaScreen competitive inhibition assay of β-catenin/BCL9 PPI. The assay is classed as binding. The conditions noted are these: mean ± standard deviation (n = 3); for Ki: derived from IC50, read-out: Ki ± SD. As to the method: AlphaScreen Assays of β-Catenin and BCL9 Interaction. Experiments were performed in white opaque 384-well plates from PerkinElmer (Waltham, MA), and the samples were read on a Biotek Synergy 2 plate reader (Winooski, VT) with excitation at 680 nm and emission at 570 nm. The standard AlphaScreen protocol was used with a sensitivity setting of 200. All dilutions were made in 1× assay buffer containing 25 mM Hepes (pH 7.4), 100 mM NaCl, 0.01% Triton X-100 and 0.1% BSA to minimize nonspecific interactions. For the competitive inhibition assays of β-catenin/BCL9 PPI, the negative control (equivalent to 0% inhibition) refers to 5.0 nM biotinylated BCL9, 50 nM His6-tagged β-catenin, and 10 μg/mL donor and acceptor beads in a final volume of 25 μL assay buffer, but no tested inhibitor present. The positive control (equivalent to 100% inhibition) refers to 5.0 nM biotinylated BCL9 and 10 μg/mL donor and acceptor beads in a final volume of 25 μL assay buffer.
For the β-catenin/BCL9 assay, 5 nM biotinylated BCL9 and 50 nM His6-tagged β-catenin were incubated in assay buffer for 30 min. Different concentrations of the tested inhibitor were added and incubated in 20 μL assay buffer for another 1 h. All of the assay plates were covered and gently mixed on an orbital shaker. The donor and acceptor beads were then added to the plates to a final concentration of 10 μg/mL in 25 μL assay buffer. The mixture was incubated for 1 h before detection. The IC50 value was determined by nonlinear least-square analysis of GraphPad Prism 8.0. The Ki values were derived from the IC50 values using a method reported by Wang and coworkers.^65 The equation used is Ki=[I]50/([L]50/Kd+[P]0/Kd+1) (Where [I]50 denotes the concentration of the free inhibitor at 50% inhibition, [L]50 is the concentration of the free labeled ligand at 50% inhibition, [P]0 is the concentration of the free protein at 0% inhibition, and Kd is the dissociation constant of the protein-ligand complex). All of the experiments were performed in triplicate and carried out in the presence of 1% DMSO for small-molecule inhibitors. Each compound was assayed at least by three independent experiments. The results were expressed as mean±standard deviation.
For orientation: Bead proximity is the source of the signal in Alpha formats.

Structures can show the parent of a compound that is named as a salt.

β-catenin/BCL9 PPI, sequence (P35222 whole entry): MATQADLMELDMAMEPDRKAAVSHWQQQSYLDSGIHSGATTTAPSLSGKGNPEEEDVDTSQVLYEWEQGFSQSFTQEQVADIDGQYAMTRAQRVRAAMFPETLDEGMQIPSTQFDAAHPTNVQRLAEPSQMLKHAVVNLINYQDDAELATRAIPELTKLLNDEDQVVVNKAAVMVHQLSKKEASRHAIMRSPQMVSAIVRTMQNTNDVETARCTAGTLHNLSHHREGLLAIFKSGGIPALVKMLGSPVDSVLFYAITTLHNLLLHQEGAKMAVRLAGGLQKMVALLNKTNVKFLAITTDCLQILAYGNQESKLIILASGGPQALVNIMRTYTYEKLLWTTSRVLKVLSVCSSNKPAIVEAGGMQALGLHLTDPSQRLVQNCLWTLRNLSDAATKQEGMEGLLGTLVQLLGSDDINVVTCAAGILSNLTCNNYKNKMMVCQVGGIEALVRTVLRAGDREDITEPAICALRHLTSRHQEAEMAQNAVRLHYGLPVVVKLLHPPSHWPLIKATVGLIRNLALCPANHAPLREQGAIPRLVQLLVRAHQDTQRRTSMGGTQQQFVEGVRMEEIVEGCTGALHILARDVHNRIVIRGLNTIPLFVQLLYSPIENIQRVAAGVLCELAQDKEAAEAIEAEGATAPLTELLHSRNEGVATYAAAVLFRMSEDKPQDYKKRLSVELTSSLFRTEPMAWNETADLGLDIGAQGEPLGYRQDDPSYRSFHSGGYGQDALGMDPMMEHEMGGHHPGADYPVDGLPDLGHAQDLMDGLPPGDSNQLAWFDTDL

Usually Ki stands for a dissociation constant, usually derived from enzyme kinetics or from competition with a known ligand. In general, IC50 refers to the concentration needed to halve the response being measured. For `O=C(c1ccc(O[C@H]2CCNC2)c(N2CCC(C(F)(F)F)CC2)c1)N1CCC(Oc2cc(F)cc(N3CCNCC3)c2)CC1` [Compound 26, (S)-(4-(3-fluoro-5-(piperazin-1-yl)phenoxy)piperidin-1-yl)(4-(pyrrolidin-3-yloxy)-3-(4-(trifluoromethyl)piperidin-1-yl)phenyl)methanone dihydrochloride], the Ki is at most 100 µM and the IC50 is at most 100 µM.

As for `O=C(c1ccc(O[C@H]2CCNC2)c(-c2ccc3ccsc3c2)c1)N1CCC(Oc2cc(F)cc(N3CCNCC3)c2)CC1` [Compound 11, (S)-(3-(benzo[b]thiophen-6-yl)-4-(pyrrolidin-3-yloxy)phenyl)(4-(3-fluoro-5-(piperazin-1-yl)phenoxy)piperidin-1-yl)methanone dihydrochloride], the inhibition constant Ki is at most 5 µM and the IC50 is at most 5 µM.

With `O=C(c1ccc(O[C@H]2CCNC2)c(-c2ccc(C(F)(F)F)cc2)c1)N1CCC(Oc2cc(F)cc(N3CCNCC3)c2)CC1` [Compound 9, (S)-(4-(3-fluoro-5-(piperazin-1-yl)phenoxy)piperidin-1-yl)(6-(pyrrolidin-3-yloxy)-4′-(trifluoromethyl)-[1,1′-biphenyl]-3-yl)methanone dihydrochloride], the Ki was at most 20 µM and the IC50 was at most 20 µM.

Consider `O=C(c1ccc(O[C@H]2CCNC2)c(N2CCCCC2)c1)N1CCC(Oc2cc(F)cc(N3CCNCC3)c2)CC1` [Compound 25, (S)-(4-(3-fluoro-5-(piperazin-1-yl)phenoxy)piperidin-1-yl)(3-(piperidin-1-yl)-4-(pyrrolidin-3-yloxy)phenyl)methanone dihydrochloride], for which the Ki was at most 60 µM and the IC50 was at most 60 µM.

Consider `O=C(c1ccc(O[C@H]2CCNC2)c(C2CCCCC2)c1)N1CCC(Oc2cc(F)cc(N3CC4(CCNCC4)C3)c2)CC1` [Compound 2, (S)-(3-cyclohexyl-4-(pyrrolidin-3-yloxy)phenyl)(4-(3-fluoro-5-(2,7-diazaspiro[3.5]nonan-2-yl)phenoxy)piperidin-1-yl)methanone ditrifluoroacetic acid], for which the Ki is over 84 µM and the IC50 is over 100 µM.

Take `CC(C)(C)C1CCC(c2cc(C(=O)N3CCC(Oc4cc(F)cc(N5CCNCC5)c4)CC3)ccc2O[C@H]2CCNC2)CC1` (stereo in doubt) [Compound 19, cis- and trans-(S)-(3-(4-(tert-butyl)cyclohexyl)-4-(pyrrolidin-3-yloxy)phenyl)(4-(3-fluoro-5-(piperazin-1-yl)phenoxy)piperidin-1-yl)methanone dihydrochloride]: the Ki was at most 5 µM and the half-maximal inhibitory concentration (IC50) is at most 5 µM.

Regarding `O=C(c1ccc(O[C@H]2CCNC2)c(-c2ccc3ccccc3c2)c1)N1CCC(Oc2cc(F)cc(N3CCNCC3)c2)CC1` [Compound 12, (S)-(4-(3-fluoro-5-(piperazin-1-yl)phenoxy)piperidin-1-yl)(3-(naphthalen-2-yl)-4-(pyrrolidin-3-yloxy)phenyl)methanone dihydrochloride], the Ki was at most 5 µM and the IC50 was at most 5 µM.

Turning to `O=C(c1ccc(O[C@H]2CCNC2)c(C2CCCCC2)c1)N1CCC(Oc2cc(F)cc(N3CCC4(CCNC4)C3)c2)CC1` (stereo partly drawn) [Compound 5, (3-cyclohexyl-4-(((S)-pyrrolidin-3-yl)oxy)phenyl)(4-(3-fluoro-5-(2,7-diazaspiro[4.4]nonan-2-yl)phenoxy)piperidin-1-yl)methanone ditrifluoroacetic acid], the Ki is at most 40 µM and the IC50 is at most 40 µM.

For `O=C(c1ccc(O[C@H]2CCNC2)c(-c2ccc3cn[nH]c3c2)c1)N1CCC(Oc2cc(F)cc(N3CCNCC3)c2)CC1` [Compound 15, (S)-(3-(1H-indazol-6-yl)-4-(pyrrolidin-3-yloxy)phenyl)(4-(3-fluoro-5-(piperazin-1-yl)phenoxy)piperidin-1-yl)methanone dihydrochloride], the Ki was at most 20 µM and the IC50 is at most 20 µM.

Turning to `O=C(c1ccc(O[C@@H]2CCNC2)c(C2CCCCC2)c1)N1CCC(Oc2cc(F)cc(N3CCNCC3)c2)CC1` [Compound 7, (R)-(3-cyclohexyl-4-(pyrrolidin-3-yloxy)phenyl)(4-(3-fluoro-5-(piperazin-1-yl)phenoxy)piperidin-1-yl)methanone dihydrochloride], the Ki is at most 60 µM and the IC50 was at most 70 µM.

As to `CC(C)(C)C1CCC(c2cc(C(=O)N3CCC(Oc4cccc(N5CCNCC5)c4)CC3)ccc2O[C@H]2CCNC2)CC1` (stereo in doubt) [Compound 38, cis and trans-(S)-(3-(4-(tert-butyl)cyclohexyl)-4-(pyrrolidin-3-yloxy)phenyl)(4-(3-(piperazin-1-yl)phenoxy)piperidin-1-yl)methanone dihydrochloride], the Ki was at most 20 µM and the IC50 was at most 20 µM.

As to `CC(C)(C)C1CCC(c2cc(C(=O)N3CCC(Oc4cc(C#N)cc(N5CCNCC5)c4)CC3)ccc2O[C@H]2CCNC2)CC1` (stereo in doubt) [Compound 32, cis- and trans-(S)-3-((1-(3-(4-(tert-butyl)cyclohexyl)-4-(pyrrolidin-3-yloxy)benzoyl)piperidin-4-yl)oxy)-5-(piperazin-1-yl)benzonitrile dihydrochloride], the Ki was at most 10 µM and the IC50 is at most 10 µM.

On to `O=C(c1ccc(O[C@H]2CCNC2)c(-c2ccc3[nH]ncc3c2)c1)N1CCC(Oc2cc(F)cc(N3CCNCC3)c2)CC1` [Compound 14, (S)-(3-(1H-indazol-5-yl)-4-(pyrrolidin-3-yloxy)phenyl)(4-(3-fluoro-5-(piperazin-1-yl)phenoxy)piperidin-1-yl)methanone dihydrochloride], for which the Ki is at most 10 µM and the IC50 was at most 10 µM.

As for `O=C(c1ccc(O[C@H]2CCNC2)c(-c2ccc3[nH]cnc3c2)c1)N1CCC(Oc2cc(F)cc(N3CCNCC3)c2)CC1` [Compound 16, (S)-(3-(1H-benzo[d]imidazol-5-yl)-4-(pyrrolidin-3-yloxy)phenyl)(4-(3-fluoro-5-(piperazin-1-yl)phenoxy)piperidin-1-yl)methanone dihydrochloride], the Ki is at most 50 µM and the IC50 was at most 50 µM.

On to `O=C(c1ccc(O[C@H]2CCNC2)c(-c2cn[nH]c2)c1)N1CCC(Oc2cc(F)cc(N3CCNCC3)c2)CC1` [Compound 17, (S)-(3-(1H-pyrazol-4-yl)-4-(pyrrolidin-3-yloxy)phenyl)(4-(3-fluoro-5-(piperazin-1-yl)phenoxy)piperidin-1-yl)methanone dihydrochloride], for which the Ki was at most 2 µM and the IC50 is at most 2 µM.

With `CC(C)C(=O)N1CCC(c2cc(C(=O)N3CCC(Oc4cc(F)cc(N5CCNCC5)c4)CC3)ccc2O[C@H]2CCNC2)CC1` [Compound 22, (S)-1-(4-(5-(4-(3-fluoro-5-(piperazin-1-yl)phenoxy)piperidine-1-carbonyl)-2-(pyrrolidin-3-yloxy)phenyl)piperidin-1-yl)-2-methylpropan-1-one dihydrochloride], the Ki was at most 50 µM and the IC50 is at most 50 µM.

`CC(C)(C)C1CCC(c2cc(C(=O)N3CCC(Oc4cc(N5CCNCC5)cc(C(F)(F)F)c4)CC3)ccc2O[C@H]2CCNC2)CC1` (stereo in doubt) [Compound 31, cis- and trans-(S)-(3-(4-(tert-butyl)cyclohexyl)-4-(pyrrolidin-3-yloxy)phenyl)(4-(3-(piperazin-1-yl)-5-(trifluoromethyl)phenoxy)piperidin-1-yl)methanone dihydrochloride]: the Ki is under 5 µM and the IC50 is at most 5 µM.
